This note sets out measurements from publication PMC7033111, “Rational design of novel benzisoxazole derivatives with acetylcholinesterase inhibitory and serotoninergic 5-HT4 receptors activities for the treatment of Alzheimer’s disease” (Scientific Reports, 2020).

As usually defined, the inhibition is the change of the read-out against control, counted positive when it falls. What is called IC50 is the concentration that inhibits the measured activity by half. Low values mean greater potency in that assay, high ones weaker potency in that assay. In general, Ki refers to a dissociation constant, usually derived from enzyme kinetics or from competition with a known ligand. Read a high Ki as lower affinity. A word on the EC50: it is the concentration at which the effect is half-maximal. Low values mean greater potency, high ones weaker potency.

Assay [1] has as its target T1, hAChE (AChE from human erythrocytes) (Homo sapiens, UniProt P22303).
T1 construct: AChE from human erythrocytes; purchased Sigma Aldrich; host or cells: human erythrocytes (tissue-derived enzyme)
The assay is described as follows: hAChE inhibition, spectrometric Ellman method. It is filed as biochemical. Conditions: for inhibition at 1 µM: 10^−6 M compound; for IC50: Ellman method, n = 2. The method, then: Inhibitory capacity of compounds on AChE biological activity was evaluated through the use of the spectrometric method of Ellman[39]. Acetylthiocholine and 5,5-dithiobis-(2-nitrobenzoic) acid (DTNB) were purchased from Sigma Aldrich. AChE from human erythrocytes (buffered aqueous solution, ≥500 units/mg protein (BCA), Sigma Aldrich) was diluted in 20 mM HEPES buffer pH 8, 0.1% Triton X-100 such as to have enzyme solution with 0.25 unit/mL enzyme activity. In the procedure, 100 μL of 0.3 mM DTNB dissolved in phosphate buffer pH 7.4 were added into the 96 wells plate followed by 50 μL of test compound solution and 50 μL of enzyme ([…]). After 5 min of preincubation at 25 °C, the reaction was then initiated by the injection of 50 μL of 10 mM acetylthiocholine iodide solution. The hydrolysis of acetylthiocholine was monitored by the formation of yellow 5-thio-2-nitrobenzoate anion as the result of the reaction of DTNB with thiocholine, released by the enzymatic hydrolysis of acetylthiocholine, at a wavelength of 412 nm using a 96-well microplate plate reader (TECAN Infinite M200, Lyon, France). Test compounds were dissolved in analytical grade DMSO. Donepezil was used as a reference standard. The rate of absorbance increase at 412 nm was followed every minute for 10 min. Assays were performed with a blank containing all components except acetylthiocholine, in order to account for non-enzymatic reaction. The reaction slopes were compared and the percent inhibition due to the presence of test compounds was calculated by the following expression: 100 − (vi/v0 × 100) where vi is the rate calculated in the presence of inhibitor and v0 is the enzyme activity.
For the compounds with significant inhibition (≥50%), IC50 values were determined graphically by plotting the % inhibition versus the logarithm of six inhibitor concentrations in the assay solution using the Origin software.
A general note: DTNB colorimetry detects thiols as they appear.

Assay [2] addresses T2, human 5-HT4R (5-HT4(b) receptor membranes) (Homo sapiens, UniProt Q13639).
T2 construct: purchased Millipore HTS110M
The assay is described as follows: h5-HT4R competition binding with [3H]-GR113808. Conditions: for inhibition: 0.2 nM [3H]-GR113808. The method, then: The competition studies used membrane preparations made from proprietary stable recombinant cell lines expressing the 5-HT4(b) receptor to ensure high-level of GPCR surface expression (HTS110M, Millipore). Membranes (2.5 µg protein) were incubated in duplicate at 25 °C for 60 min in the absence or the presence of 10^–6 or 10^–8M of each drug and 0.2 nM [^3H]-GR 113808 (VT 240, ViTrax) in 25 mM Tris buffer (pH 7.4, 25 °C). At the end of the incubation, homogenates were filtered through Whatman GF/C filters (Alpha Biotech) pre-soaked with 0.5% polyethylenimine using a Brandel cell harvester. Filters were subsequently washed three times with 4 mL of ice-cold 25 mM Tris buffer (pH 7.4, 4 °C). Non-specific binding was evaluated in parallel in the presence of 30 μM serotonin.
For some of these compounds, affinity constants were calculated from five-point inhibition curves using the EBDA-Ligand software and expressed as Ki ± SD[41].

Assay [3] addresses T3, HA-tagged human 5-HT4 receptor (Homo sapiens, UniProt Q13639).
T3 construct: HA; expressed in transfected cells; host or cells: COS-7 cells (ATCC CRL-1651), transient transfection
Briefly: cAMP production, agonist mode, transfected COS-7 cells. Conditions: for 5-HT4 pharmacological profile (agonism assay): cAMP production, COS-7 cells; for Log(EC50): given as Log(EC50). It is filed as cell-based. The source says:
(§1) Figure 5 Determination of the 5-HT4 pharmacological profiles for compounds 16, 32a and 33 by quantification of cAMP production. (A) Assay to determine the agonism activity (with serotonin and the partial agonist RS-67333 as references). (B) Assay to determine the antagonism activity (with the antagonist GR113808 as reference). Data presented are the mean of three independent experiments performed in duplicate.
(§2) COS-7 cells were purchased from ATCC (ATCC CRL-1651; LGC […], Molsheim, France). T were grown in Dulbecco’s modified Eagle medium (DMEM) supplemented with 10% dialyzed fetal calf serum (dFCS) and antibiotics. Cells were transiently transfected with plasmid encoding HA-tagged human 5-HT4 receptor, then seeded in 96-well plates (35,000 cells/well). 24 hrs after transfection, cells were washed once with 200 µl of HBS (20 mM HEPES; 150 mM NaCl; 4.2 mM KCl; 0.9 mM CaCl2; 0.5 mM MgCl2; 0.1% glucose; 0.1% BSA) and, after HBS removal, exposed to the indicated concentrations of 5-HT4R ligands in the presence of 0.1 mM of the phosphodiesterase inhibitor RO-20-1724, at 37 °C in 100 µl of HBS. After 10 min, cells were then lysed by addition of the same volume of Triton-X100 (0.1%) during 30 min at 37 °C. The competition assay in antagonist mode was performed as follows: after one wash in 200 µl of HBS, cells were exposed to 5-HT4R ligands at twice the indicated concentration, at 37 °C in 50 µl of HBS. After 7 min, serotonin (final concentration of 5.10^−7M) was added in 50 µl of HBS in the presence of the phosphodiesterase inhibitor RO-20-1724 (final concentration of 0.1 mM). After 10 min, cells were then lysed by addition of the same volume of Triton-X100 (0.1%) during 30 min at 37 °C. Quantification of cAMP production was performed by HTRF by using the cAMP Dynamic kit (Cisbio Bioassays) according to the manufacturer’s instructions

Assay [4] deals with T3, HA-tagged human 5-HT4 receptor. Briefly: cAMP production, competition assay in antagonist mode vs serotonin, transfected COS-7 cells. The class given is cell-based. Conditions: for 5-HT4 pharmacological profile (antagonism assay): cAMP production.
Excerpt: as §1, §2

Where [5] appears, read: 10^−6 M compound, read-out: h5-HT4R % inhibition at 10^−6 M (converted).
Setting [6] is: 10^−8 M compound, read-out: h5-HT4R % inhibition at 10^−8 M (converted).
[7] abbreviates: agonist mode, individual experiments HP5, HP6, HP7.
Setting [8] is: IC50 (5-HT4R antagonist, cAMP production), COS-7 cells, serotonin 5.10^−7 M, mean of three experiments.
[9] abbreviates: antagonist mode, individual experiments HP8, HP10, HP11.

Structures are written as SMILES. Values joined by “and” are separate entries in the source; they are usually repeats but may differ in a detail not shown here. Equal entries are not always repeated. Where two headings read alike, the source gives them in different places.

T1 sequence (P22303 other isoform, or with tags, fused parts or gaps): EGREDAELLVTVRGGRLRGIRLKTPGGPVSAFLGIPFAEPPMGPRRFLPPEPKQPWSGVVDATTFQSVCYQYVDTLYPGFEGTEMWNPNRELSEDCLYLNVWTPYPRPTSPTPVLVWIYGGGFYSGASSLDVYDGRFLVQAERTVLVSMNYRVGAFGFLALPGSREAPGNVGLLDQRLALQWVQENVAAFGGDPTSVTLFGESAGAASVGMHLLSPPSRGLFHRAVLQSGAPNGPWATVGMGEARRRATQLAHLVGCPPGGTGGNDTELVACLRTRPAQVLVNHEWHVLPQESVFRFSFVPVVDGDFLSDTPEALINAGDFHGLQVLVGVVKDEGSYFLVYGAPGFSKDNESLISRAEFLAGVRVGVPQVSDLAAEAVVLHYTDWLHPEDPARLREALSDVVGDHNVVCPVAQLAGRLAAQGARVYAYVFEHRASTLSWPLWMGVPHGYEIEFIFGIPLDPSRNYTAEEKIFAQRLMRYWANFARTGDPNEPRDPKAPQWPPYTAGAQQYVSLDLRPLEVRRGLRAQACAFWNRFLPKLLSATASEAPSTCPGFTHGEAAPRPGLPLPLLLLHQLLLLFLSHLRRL
T3 sequence (Q13639 whole entry): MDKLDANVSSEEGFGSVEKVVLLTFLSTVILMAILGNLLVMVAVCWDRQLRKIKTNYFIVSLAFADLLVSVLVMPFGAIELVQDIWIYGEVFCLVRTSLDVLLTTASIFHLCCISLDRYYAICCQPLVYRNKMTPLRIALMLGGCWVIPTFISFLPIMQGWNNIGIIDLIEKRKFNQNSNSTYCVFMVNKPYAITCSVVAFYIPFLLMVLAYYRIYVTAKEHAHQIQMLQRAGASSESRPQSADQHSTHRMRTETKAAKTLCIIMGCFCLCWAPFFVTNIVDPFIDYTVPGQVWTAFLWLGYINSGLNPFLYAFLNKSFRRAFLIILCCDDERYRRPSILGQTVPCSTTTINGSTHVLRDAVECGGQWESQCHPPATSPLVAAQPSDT
T2 sequence (Q13639 whole entry): as above

Regarding `CCOc1cccc2onc(CCC3CCN(CC4CCCCC4)CC3)c12` [Compound 32b], in assay [1], the inhibition at 1 µM is 87% and the IC50 was determined as 200 ± 32 nM. This molecule returned a Ki in assay [2] of 80.5 ± 9.9 nM. Moreover, in assay [2] (setting [5]), the inhibition was 100%. Moreover, in assay [2] (setting [6]), the inhibition is 16%.
In assay [1], `COc1cccc2onc(CCC3CCN(CC4CCCCC4)CC3)c12` [Compound 32a, 3-[2-[1-(cyclohexylmethyl)-4-piperidyl]ethyl]-4-methoxy-1,2-benzoxazole] gave an inhibition at 1 µM of 94%. Besides, the IC50 is 63.5 ± 19.2 nM in assay [1]; 97.2 ± 17.2 nM in assay [4] (setting [8]); 129 nM and 69.5 nM and 93.6 nM in assay [4] (IC50, antagonist mode, individual experiments HP8, HP10, HP11, unit inferred); 100 nM in assay [4] (Log(IC50), antagonist mode, Moy., printed as Log(IC50), negative). This molecule also returned a Ki in assay [2] of 59 ± 8.5 nM. Moreover, the inhibition in assay [2] (setting [5]) was 100%; in assay [2] (setting [6]), 13%. Also, the EC50 in assay [3] (EC50, agonist mode, Moy. (mean of HP5-HP7), unit inferred) was 11300 nM; in assay [3] (EC50, agonist mode, individual experiments HP5, HP6, HP7, unit inferred) it was 13600 nM and 20300 nM. The “Top AMPc” value is 22% in assay [3] (agonist mode, Moy.); 29.36% and 12.83% and 24.95% in assay [3] (setting [7]). In addition, the “5-HT4 pharmacological profile (agonism assay)” value in assay [3] is given as “not agonist”. Further, the “Bott. AMPc” value in assay [4] (antagonist mode, Moy.) is 33%; in assay [4] (setting [9]), 38.80% and 27.69% and 32.50%. The “5-HT4 pharmacological profile (antagonism assay)” value in assay [4] (COS-7 cells) was “antagonists”.
Take `c1ccc(COc2cccc3onc(CCC4CCN(CC5CCCCC5)CC4)c23)cc1` [Compound 32e]: the inhibition at 1 µM in assay [1] came to 10%. Besides, affinity in assay [2] was put at a Ki of 2920 ± 781 nM. Moreover, the figures for the inhibition in assay [2] (setting [5]) and in assay [2] (setting [6]) were 96% and 0%, respectively.
On to `c1ccc(CN2CCC(CCc3noc4ccccc34)CC2)cc1` [Compound 22], for which, in assay [2], the affinity, expressed as Ki, was 263 ± 11 nM. The inhibition in assay [2] (setting [5]) was 78%; in assay [2] (setting [6]) it was 8%.
As to `CC(C)CN1CCC(CCc2noc3ccccc23)CC1` [Compound 23], testing at 1 µM in assay [1] gave an inhibition of 11%. Moreover, the results for the inhibition in assay [2] (setting [5]) and in assay [2] (setting [6]) were 87% and 8%, respectively.
Regarding `CC(C)COc1cccc2onc(CCC3CCN(CC4CCCCC4)CC3)c12` [Compound 32c], the inhibition at 1 µM in assay [1] stood at 42%. Moreover, the “inhibition of the enzyme (AChE), in words” value in assay [1] (statement in discussion) is recorded as “without AChE inhibition”. Also, affinity in assay [2] was put at a Ki of 219 ± 65 nM. Further, the inhibition in assay [2] (setting [5]) was 100%; in assay [2] (setting [6]), 4%.
For `c1cc(OC2CCCC2)c2c(CCC3CCN(CC4CCCCC4)CC3)noc2c1` [Compound 32d], in assay [1], the inhibition at 1 µM was 52% and half-maximal inhibition (IC50) required 1000 ± 84 nM. Moreover, the Ki in assay [2] was determined as 616 ± 67 nM. Further, in assay [2] (setting [5]), the inhibition is 100%. In assay [2] (setting [6]), the inhibition is 0%.
In the case of `Oc1cccc2onc(CCC3CCN(CC4CCCCC4)CC3)c12` [Compound 33], the inhibition at 1 µM in assay [1] was 87%. Also, the values for the IC50 in assay [1] and in assay [4] (setting [8]) were 97.3 ± 1.5 nM and 883 ± 598 nM, respectively. Further, the affinity in assay [2], expressed as Ki, was 37 ± 10.5 nM. The inhibition was 100% in assay [2] (setting [5]) and 29% in assay [2] (setting [6]). The “Top AMPc” value was -3% in assay [3] (agonist mode, Moy.); -15.21% and 4.96% and 0.00% in assay [3] (setting [7]). The EC50 result is “ns” in assay [3] (agonist mode, Moy. (mean of HP5-HP7), unit not given) and “ns” in assay [3] (agonist mode, individual experiments HP5, HP6, HP7, unit not given). Also, the “Log(EC50)” value in assay [3] (agonist mode, Moy., negative) was “ns”; in assay [3] (setting [7]), “ns”. In assay [3], the “5-HT4 pharmacological profile (agonism assay)” value is “not agonist”. Further, the “Bott. AMPc” value is 44% in assay [4] (antagonist mode, Moy.); 50.44% and 46.43% and 34.27% in assay [4] (setting [9]). Also, in assay [4] (COS-7 cells), the “5-HT4 pharmacological profile (antagonism assay)” value is on record as “antagonists”.
In the case of `c1ccc2c(OCC3CCN(CC4CCCCC4)CC3)noc2c1` [Compound 11, 3-[[1-(cyclohexylmethyl)-4-piperidyl]methoxy]-1,2-benzoxazole], in assay [1], the inhibition at 1 µM was determined as 24%. In assay [2], this molecule displayed a Ki of 9.6 ± 1.6 nM. The results for the inhibition in assay [2] (setting [5]) and in assay [2] (setting [6]) were 100% and 67%, respectively.
In the case of `c1ccc2c(CCC3CCN(CC4CCCCC4)CC3)noc2c1` [Compound 21], in assay [1], the inhibition at 1 µM is 84% and inhibition was half-maximal at 240 ± 59 nM (IC50). Also, the Ki in assay [2] turned out to be 139 ± 9 nM. Further, the inhibition in assay [2] (setting [5]) is 89%. In addition, the inhibition in assay [2] (setting [6]) is 4%.
In turn, `COc1cccc2onc(OCC3CCN(Cc4ccccc4)CC3)c12` [Compound 15] had an inhibition at 1 µM in assay [1] of 82%. In assay [1], this molecule displayed an IC50 of 939 ± 40 nM. The molecule further came in with a Ki in assay [2] of 3 ± 0.4 nM. Moreover, the inhibition in assay [2] (setting [5]) is 100%; in assay [2] (setting [6]), 94%.
`CC(C)CN1CCC(COc2noc3ccccc23)CC1` [Compound 13] had an inhibition at 1 µM in assay [1] of 8%. In assay [2], this molecule had a Ki of 20.8 ± 12.5 nM. For the same molecule, the inhibition was 100% in assay [2] (setting [5]) and 59% in assay [2] (setting [6]).
In the case of `COc1cccc2onc(OCC3CCN(CC4CCCCC4)CC3)c12` [Compound 14], in assay [1], 1 µM produced 82% inhibition and the IC50 amounted to 441 ± 63 nM. The molecule further showed a Ki in assay [2] of 2.7 ± 0.4 nM. Moreover, the inhibition in assay [2] (setting [5]) is 100%. For the same molecule, the inhibition in assay [2] (setting [6]) was 99%.
Regarding `c1ccc(CN2CCC(COc3noc4ccccc34)CC2)cc1` [Compound 12], the Ki in assay [2] was 42.4 ± 12.2 nM. The figures for the inhibition in assay [2] (setting [5]) and in assay [2] (setting [6]) were 99% and 29%, respectively.
